According to patent US20230357189A1, “MODIFIED FLUOROQUINOLONES AND USES THEREOF” (Technion Research & Development Foundation Limited, priority 2021, published 2023):
≈ marks a conversion by molar mass, not a printed value.

What was measured:
[1] = test system: Staphylococcus Epidermidis; experiment: Antibacterial activity, MIC by double-microdilution method; format: cell-based; details: for Gram-positive MIC c: Table 2; for MIC: Table 2, read-out: Gram-positive MIC c
[2] = target: T1, E. coli DNA gyrase (Escherichia coli, UniProt P0AES4+P0AES6); experiment: E. coli Gyrase-DNA supercoiling assay; format: biochemical; details: supercoiling of relaxed pHOT-1 plasmid in presence of ATP; 37° C., 60 minutes
T1 construct: purchased TopoGEN
T1 sequence (P0AES4 whole entry, one chain of several): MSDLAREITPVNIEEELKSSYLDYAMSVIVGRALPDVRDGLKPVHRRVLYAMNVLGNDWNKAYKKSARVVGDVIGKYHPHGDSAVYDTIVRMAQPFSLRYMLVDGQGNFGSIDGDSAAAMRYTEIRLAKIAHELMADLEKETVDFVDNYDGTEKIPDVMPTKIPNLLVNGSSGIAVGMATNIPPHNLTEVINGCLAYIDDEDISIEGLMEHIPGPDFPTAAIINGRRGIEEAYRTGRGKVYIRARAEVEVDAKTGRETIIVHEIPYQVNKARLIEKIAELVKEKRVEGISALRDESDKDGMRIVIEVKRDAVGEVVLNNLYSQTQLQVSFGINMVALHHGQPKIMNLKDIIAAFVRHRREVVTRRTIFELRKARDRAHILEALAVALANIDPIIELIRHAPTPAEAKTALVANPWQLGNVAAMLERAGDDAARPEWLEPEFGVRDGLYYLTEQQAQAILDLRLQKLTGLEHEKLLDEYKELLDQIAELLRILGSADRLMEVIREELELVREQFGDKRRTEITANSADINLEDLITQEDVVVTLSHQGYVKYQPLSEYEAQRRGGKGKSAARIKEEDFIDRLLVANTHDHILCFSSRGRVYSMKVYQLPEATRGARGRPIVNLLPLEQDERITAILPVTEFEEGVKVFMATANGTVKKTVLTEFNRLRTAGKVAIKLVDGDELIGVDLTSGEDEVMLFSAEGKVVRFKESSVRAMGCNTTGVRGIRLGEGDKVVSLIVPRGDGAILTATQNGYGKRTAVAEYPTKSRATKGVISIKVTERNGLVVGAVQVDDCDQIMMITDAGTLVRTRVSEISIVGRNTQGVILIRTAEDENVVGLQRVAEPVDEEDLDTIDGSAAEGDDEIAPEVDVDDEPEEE
Procedure: The DNA supercoiling reactions were based on the manufacturer protocol (TopoGEN). The amount of DNA gyrase used in each assay was optimized by testing various dilutions of the stock. The amount sufficient to supercoil 250 nanograms (ng) of the substrate in 1 hour at 37° C. was then used for testing the compounds (1.1 U as defined by manufacturer). Assays (30 μL) contained 250 nanograms of relaxed pHOT1 plasmid DNA in Tris-HCl buffer (35 mM), pH 7.5, containing KCl (24 mM), MgCl2 (4 mM), DTT (2 mM), Spermidine (1.8 mM), ATP (1 mM), 6.5% (w/v) glycerol and bovine serum albumin (0.1 mg/ml). Reactions were incubated at 37° C. for 60 minutes. Reaction mixtures were stopped by the addition of 30 μL of loading buffer (40% sucrose, 100 mM Tris·HCl (pH 7.5), 1 mM EDTA, 0.5 mg×mL^−1 bromophenol blue) and worked up using 30 μL of 24:1 chloroform/isoamyl alcohol mixture; the aqueous layer was then analyzed using electrophoresis.
Electrophoresis, gel staining, DNA visualization and DNA quantification were performed as described for the DNA cleavage assays.

[3] = test system: supercoiled (+) pHOT-1 plasmid DNA; experiment: DNA cleavage assay (gel electrophoresis); format: biochemical; details: for DNase activity (cleavage of supercoiled plasmid, form I to form II): absence of adjuvants, HEPES buffer (50 mM, pH 7.4), 5 hours; for concentration giving almost complete smearing of the DNA (multiply nicked DNA): ascorbic acid (0.32 mM), HEPES pH 7.4, 2 hours
Procedure: Removal of Ligands Prior to Electrophoresis was performed when more than 100 μM of Cu(II)-ligand or Co(III) ligand (at any concentration) complexes were employed that is, for DNA cleavage assays that were performed in the absence of any adjuvants. An Amberlyst® 15 (Sigma Aldrich) ion-exchange resin was prepared according to the reported literature [Hettich et al. J. Am. Chem. Soc. 1997, 119 (24), 5638-5647] and stored at −20° C. Before use, 0.5 gram of the exchanger was mixed with 250 μL of water. After stopping the DNA-cleavage reaction by addition of EDTA (54 mM, 15 minutes incubation at 37° C.), 10 μL of the exchanger suspension was added, vortexed, and incubated at 37° C. for 15 minutes before centrifugation and electrophoresis.
DNA cleavage activity of the tested Complexes towards supercoiled (+) pHOT-1 plasmid DNA (TopoGEN) was monitored by gel electrophoresis. In a typical experiment, plasmid DNA (200 ng, […]) in HEPES buffer (50 mM, pH 7.4) was mixed with different concentrations of a tested metal complex in the presence or absence of ascorbic acid (0.32 mM). All stock solutions of buffers and of the metal complexes were prepared using HPLC grade water (ChromAR®). Molecular biology reagent grade water (Sigma) was added up to a total reaction volume of 30 μL before incubation for a given time. For the ascorbic acid assays, the reaction was quenched immediately after incubation with EDTA (54 mM). For analysis, 10 μL of loading buffer (40% sucrose, 100 mM Tris-HCl (pH 7.5), 1 mM EDTA, 0.5 mg·mL^−1 bromophenol blue) was added to the incubated solution and loaded onto an agarose (SeaKem LE) gel [1% in TAE×1 buffer (40 mM Tris, 20 mM acetic acid, 1 mM EDTA)]. Electrophoresis was carried out at 60 V for 2 hours. Gels were stained with 1 μg·mL^−1 ethidium bromide for 30 minutes and de-stained in TAE×1 buffer. DNA bands were visualized with medium-range ultraviolet light using Bio-Rad Gel Doc XR+ imaging system. The quantity of different DNA forms (I or II) was estimated using ImageJ software.
Chem. 2015, 2015 (28), 4722-4730; Kashiba-Iwatsuki et al. FEBS Lett. 1996, 389 (2), 149-15].
The copper complex of compound 2 (2-Cu(II)) was used as the positive control in these assays.

[4] = target: T1, E. coli DNA gyrase; experiment: E. coli Gyrase-DNA cleavage assay; format: biochemical; details: for linearization of supercoiled DNA with DNA gyrase, after Proteinase K / generation of linear DNA with DNA gyrase, without Proteinase K: absence of ATP; for linearization of supercoiled DNA with DNA gyrase, after Proteinase K: second incubation with SDS and Proteinase K; for generation of linear DNA with DNA gyrase, without Proteinase K / concentration of maximum linear DNA (bell-shaped profile): without Proteinase K treatment; for generation of linear DNA with DNA gyrase, without Proteinase K: buffer with DTT
Procedure: E. coli gyrase enzyme was purchased from TopoGEN and the DNA cleavage reactions were based on the protocol of Inspiralis. Assays (30 μL) contained supercoiled (+) pHOT1 plasmid (200 nanograms) and DNA gyrase (5 U as defined by manufacturer) in 35 mM Tris-HCl (pH 7.5), 24 mM KCl, 4 mM MgCl2, 2 mM DTT, 1.8 mM Spermidine, 6.5% (w/v) glycerol and 0.1 mg/mL bovine serum albumin. Reactions were incubated at 37° C. for 60 minutes. Enzyme-DNA cleavage complexes were trapped by adding 3 μL of 2% SDS. Following this, 1.5 μL of 10 mg/mL Proteinase K (Sigma-Aldrich) was added (where relevant) and the reaction mixtures were incubated at 37° C. for 30 minutes to digest the enzyme gyrase. Samples were mixed with 30 μL of loading buffer (40% sucrose, 100 mM Tris-HCl (pH 7.5), 1 mM EDTA, 0.5 mg-ml-1 bromophenol blue) and worked up using 30 μL of 24:1 chloroform/isoamyl alcohol mixture; the aqueous layer was then analyzed using electrophoresis. Electrophoresis, gel staining, DNA visualization and DNA quantification were performed as described for the DNA cleavage assays. DNA double stranded cleavage was monitored by the conversion of supercoiled plasmid to linear DNA and quantified in comparison to a control drug-free reaction.
To investigate the mechanism of inhibition, a DNA gyrase-induced DNA cleavage assay was performed in the absence of ATP. In this assay, the production of linear DNA from supercoiled DNA is measured as a function of compound concentration. […] Consequently, for the purposes of this assay, it is necessary to perform a second incubation of the reaction mixture with SDS and Proteinase K, which enables the digestion of the DNA gyrase enzyme and thereby ‘frees’ the linear DNA (Form III) so that it moves during electrophoresis.

[5] = test system: Escherichia coli 25922; experiment: Antibacterial activity, MIC by double-microdilution method; format: cell-based; details: for Gram-negative MIC b / MIC: Table 2, Escherichia coli 25922; for MIC: read-out: Gram-negative MIC b
[6] = test system: Escherichia coli R477-100; experiment: as above; format: cell-based; details: for Gram-negative MIC a / MIC: Table 2, without DTT; for MIC: R477100, read-out: Gram-negative MIC a
[7] = test system: Bacillus Subtilis; experiment: as above; format: cell-based; details: for Gram-positive MIC d / MIC: Table 2; for MIC: read-out: Gram-positive MIC d
[8] = test system: Gram-negative and Gram-positive bacteria; experiment: Comparative antibacterial activity, all tested bacteria; format: cell-based; details: for antibacterial activity (in words): MIC, Table 2 and 3
Procedure: Comparative antibacterial activities were determined by measuring the MIC values by using the double-microdilution method according to the National Committee for Clinical Laboratory Standards (NCCLS). The Luria-Bertani growth medium and polypropylene 96-well plates (Thermo) were used unless otherwise stated. All the experiments were performed in triplicate, and analogous results were obtained in three different experiments.
Compounds 1-6 and their Cu(II) and Co(III) complexes, as well as the pendant-bearing compounds 19-23 and 26 were tested for their comparative antibacterial activity by determining MIC values against two Gram-negative E. coli strains (AR477-100 and 25922) and two Gram-positive strains, Staphylococcus Epidermidis, and Bacillus Subtilis.

| Compound | Gram-positive MIC c [1] | IC50 [2] | DNase activity (cleavage of supercoiled plasmid, form I to form II) [3] | linearization of supercoiled DNA with DNA gyrase, after Proteinase K [4] | generation of linear DNA with DNA gyrase, without Proteinase K [4] | Gram-negative MIC b [5] | Gram-negative MIC a ([6]; Escherichia coli R477-100) | Gram-positive MIC d ([7]; Bacillus Subtilis) | antibacterial activity (in words) [8] | MIC [1] | MIC [5] | MIC ([6]; Escherichia coli R477-100) | MIC ([7]; Bacillus Subtilis) | further results |
| --- | --- | --- | --- | --- | --- | --- | --- | --- | --- | --- | --- | --- | --- | --- |
| O.O=C(O)c1cn(C2CC2)c2cc(N3CCN(CCCCCCN4CCNCCNCCNCC4)CC3)c(F)cc2c1=O.[Cu+2] [1-Cu(II)] | 24 µg/mL | 100 ± 10 nM | very significant enhancement in the rates of DNA cleavage | linearized the DNA in a similar manner to the metal-free ligands | not able to generate linear DNA at any concentration | 48 µg/mL | 24 µg/mL | 48 µg/mL |  |  |  |  |  | concentration giving almost complete smearing of the DNA (multiply nicked DNA) [3]: > 40 µM; improvement of MIC in the presence of DTT ([6]; 10 mM DTT vs without DTT, Gram-negative E. coli R477-100): no change whatsoever |
| O.O=C(O)c1cn(C2CC2)c2cc(N3CCN(CCCCCCCN4CCNCCNCCNCC4)CC3)c(F)cc2c1=O.[Cu+2] [2-Cu(II)] | 12 µg/mL | 240 ± 30 nM | significant cleavage enhancement even in relation to the activity of 1-Cu(II) and 4-Cu(II) | linearized the DNA in a similar manner to the metal-free ligands | able to generate a significant quantity of linear DNA | 6 µg/mL | 12 µg/mL | 12 µg/mL |  |  |  |  |  | concentration giving almost complete smearing of the DNA (multiply nicked DNA) [3]: 20 µM; concentration of maximum linear DNA (bell-shaped profile) [4]: 25 µM |
| O.O=C(O)c1cn(C2CC2)c2cc(N3CCN(Cc4ccc(CN5CCNCCNCCNCC5)cc4)CC3)c(F)cc2c1=O.[Cu+2] [4-Cu(II)] | 3 µg/mL | 140 ± 20 nM | very significant enhancement in the rates of DNA cleavage | linearized the DNA in a similar manner to the metal-free ligands | able to generate a significant quantity of linear DNA | 12 µg/mL | 24 µg/mL | 6 µg/mL |  |  |  |  |  | concentration of maximum linear DNA (bell-shaped profile) [4]: 25 µM; improvement of MIC in the presence of DTT ([5]; 10 mM DTT vs without DTT, E. coli 25922): 4 fold; Gram-negative MIC, DTT 10 mM ([6]; Escherichia coli R477-100): 3.0 µg/mL; improvement of MIC in the presence of DTT ([7]; 10 mM DTT vs without DTT, Gram-positive B. Subtilis): 4 fold |
| O.O=C(O)c1cn(C2CC2)c2cc(N3CCN(Cc4ccc(CCN5CCNCCNCCNCC5)cc4)CC3)c(F)cc2c1=O.[Co+3].[OH-] [5-Co(III)] | 3 µg/mL |  |  |  |  | 1.5 µg/mL | 3 µg/mL | 3 µg/mL | slightly higher activity |  |  |  |  |  |
| O.O=C(O)c1cn(C2CC2)c2cc(N3CCN(Cc4ccc(CCCN5CCNCCNCCNCC5)cc4)CC3)c(F)cc2c1=O.[Co+3].[OH-] [6-Co(III)] | 3 µg/mL |  |  |  |  | 3 µg/mL | 6 µg/mL | 3 µg/mL | slightly higher activity |  |  |  |  |  |
| O=C(O)c1cn(C2CC2)c2cc(N3CCN(CCCCCCN4CCNCCNCCNCC4)CC3)c(F)cc2c1=O [Compound 1] |  | 130 ± 30 nM |  | significant linearization of DNA |  |  |  |  |  | 12 µg/mL (≈ 20.5 µM) | 24 µg/mL (≈ 41 µM) | 12 µg/mL (≈ 20.5 µM) | 12 µg/mL (≈ 20.5 µM) |  |
| O=C(O)c1cn(C2CC2)c2cc(N3CCN(CCCCCCCN4CCNCCNCCNCC4)CC3)c(F)cc2c1=O [Compound 2] |  | 240 ± 30 nM |  | significant linearization of DNA |  |  |  |  |  | 12 µg/mL (≈ 20 µM) | 6 µg/mL (≈ 10 µM) | 12 µg/mL (≈ 20 µM) | 12 µg/mL (≈ 20 µM) |  |
| O=C(O)c1cn(C2CC2)c2cc(N3CCN(Cc4ccc(CN5CCNCCNCCNCC5)cc4)CC3)c(F)cc2c1=O [Compound 4] |  | 150 ± 10 nM |  | significant linearization of DNA |  |  |  |  |  | 6 to 12 µg/mL (≈ 9.9 to 19.8 µM) | 12 to 24 µg/mL (≈ 19.8 to 39.6 µM) | 12 to 24 µg/mL (≈ 19.8 to 39.6 µM) | 6 to 12 µg/mL (≈ 9.9 to 19.8 µM) |  |
| N=C(N)NCCN1CCNCCNCCN(CCCCc2ccc(CN3CCN(c4cc5c(cc4F)c(=O)c(C(=O)O)cn5C4CC4)CC3)cc2)CC1 [Compound 22] | 6 µg/mL |  | significant DNase activity |  |  | 3 µg/mL | 3 µg/mL | 1.5 µg/mL | slightly higher activity |  |  |  |  | Gram-negative MIC, DTT 10 mM ([6]; Escherichia coli R477-100): 3 µg/mL; Gram-negative MIC, DTT 0 mM ([6]; Table 3, Escherichia coli R477-100, DTT 0 mM): 3 µg/mL; Gram-negative MIC, DTT 2 mM ([6]; Table 3, Escherichia coli R477-100, DTT 2 mM): 3 µg/mL; better antibacterial activity compared to all the other pendant-bearing metal-free ligands ([8]; Table 2 MIC): 4-8 fold; Gram-positive MIC, DTT 0 mM ([7]; Table 3, Bacillus Subtilis, DTT 0 mM): 1.5 µg/mL; Gram-positive MIC, DTT 2 mM ([7]; Table 3, Bacillus Subtilis, DTT 2 mM): 1.5 µg/mL; Gram-positive MIC, DTT 10 mM ([7]; Table 3, Bacillus Subtilis, DTT 10 mM): 1.5 µg/mL |
